# Where a name gives a salt, the structure may show the parent alone.
# Molecular target: T1, recombinant guanylate cyclase reporter cell line (Rattus norvegicus, UniProt P20595)
# T1 construct: expressed in transfected cells
# T1 sequence (P20595 1-619): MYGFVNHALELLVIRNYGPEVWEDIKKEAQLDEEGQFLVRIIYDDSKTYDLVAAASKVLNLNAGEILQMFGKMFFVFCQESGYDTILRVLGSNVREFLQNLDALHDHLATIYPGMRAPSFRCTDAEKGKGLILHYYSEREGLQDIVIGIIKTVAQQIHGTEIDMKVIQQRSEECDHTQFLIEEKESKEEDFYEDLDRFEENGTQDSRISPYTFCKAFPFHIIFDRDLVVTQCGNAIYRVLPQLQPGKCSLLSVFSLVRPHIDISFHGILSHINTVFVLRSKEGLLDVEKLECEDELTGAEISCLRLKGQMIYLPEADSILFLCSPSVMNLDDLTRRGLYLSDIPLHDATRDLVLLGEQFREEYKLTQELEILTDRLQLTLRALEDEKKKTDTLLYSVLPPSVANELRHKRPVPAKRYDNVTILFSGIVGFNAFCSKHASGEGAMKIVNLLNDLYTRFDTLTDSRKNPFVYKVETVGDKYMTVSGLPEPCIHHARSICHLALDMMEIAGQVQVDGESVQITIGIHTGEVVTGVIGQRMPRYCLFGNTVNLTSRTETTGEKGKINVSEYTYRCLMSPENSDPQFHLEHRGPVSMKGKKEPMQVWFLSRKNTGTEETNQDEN
# T1 sequence (P19686 1-690 partner): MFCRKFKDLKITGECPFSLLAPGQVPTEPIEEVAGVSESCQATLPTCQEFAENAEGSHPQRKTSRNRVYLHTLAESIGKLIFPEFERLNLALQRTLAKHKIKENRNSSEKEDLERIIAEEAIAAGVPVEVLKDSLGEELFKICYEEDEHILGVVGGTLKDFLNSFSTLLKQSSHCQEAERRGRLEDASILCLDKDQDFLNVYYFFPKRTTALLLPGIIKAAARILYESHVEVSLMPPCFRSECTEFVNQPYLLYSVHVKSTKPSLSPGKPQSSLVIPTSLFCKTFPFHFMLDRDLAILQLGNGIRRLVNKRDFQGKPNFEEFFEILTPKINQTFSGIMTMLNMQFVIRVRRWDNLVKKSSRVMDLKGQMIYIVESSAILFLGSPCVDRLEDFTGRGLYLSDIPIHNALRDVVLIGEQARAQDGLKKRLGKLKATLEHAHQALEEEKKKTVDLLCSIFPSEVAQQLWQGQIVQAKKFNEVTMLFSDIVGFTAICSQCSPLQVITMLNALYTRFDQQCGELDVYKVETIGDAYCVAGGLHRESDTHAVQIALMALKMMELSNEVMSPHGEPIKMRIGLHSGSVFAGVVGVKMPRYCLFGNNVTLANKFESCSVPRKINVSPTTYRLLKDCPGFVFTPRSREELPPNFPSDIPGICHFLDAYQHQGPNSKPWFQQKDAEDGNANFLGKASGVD
# Assay: Effect on a recombinant guanylate cyclase reporter cell line
# Assay type: cell-based
# Conditions: for EC50: half maximal effective concentration; for MEC: minimum effective concentration
# Method: B-1. Effect on a Recombinant Guanylate Cyclase Reporter Cell Line
# The cellular activity of the compounds according to the invention was determined using a recombinant guanylate cyclase reporter cell line, as described in F. Wunder et al., Anal. Biochem. 339, 104-112 (2005).
Compound,EC50 [nM],MEC [nM]
"O=C(O)c1cnn(C2CCCN(c3cc(Cl)ccc3-c3ccc(N4CCN(CCC(F)(F)F)CC4)cc3)C2)c1C(F)F (single isomer, unassigned; enantiomer 2) [Example 23, 1-(1-{4-Chloro-4′-[4-(3,3,3-trifluoropropyl)piperazin-1-yl][biphenyl]-2-yl}piperidin-3-yl)-5-(difluoromethyl)-1H-pyrazole-4-carboxylic acid hydrochloride (Enantiomer 2)]",1,<0.3
"O=C(O)c1cnn(C2CCCN(c3cc(Cl)ccc3-c3ccc(N4CCN(CC56CC(F)(C5)C6)CC4)cc3)C2)c1C(F)F (single isomer, unassigned; enantiomer 2) [Example 17, 1-[1-(4-Chloro-4′-{4-[(3-fluorobicyclo[1.1.1]pentan-1-yl)methyl]piperazin-1-yl}[biphenyl]-2-yl)piperidin-3-yl]-5-(difluoromethyl)-1H-pyrazole-4-carboxylic acid hydrochloride (Enantiomer 2)]",10.2,1.0
"CC(C)CN1CCN(c2ncc(-c3ccc(Cl)cc3N3CCCC(n4ncc(C(=O)O)c4C(F)F)C3)cn2)CC1 (single isomer, unassigned; enantiomer 2) [Example 70, 1-(1-{5-Chloro-2-[2-(4-isobutylpiperazin-1-yl)pyrimidin-5-yl]phenyl}piperidin-3-yl)-5-(difluoromethyl)-1H-pyrazole-4-carboxylic acid hydrochloride (Enantiomer 2)]",21.5,3.0
"CC(C)CC(=O)N1CCN(c2ccc(-c3ccc(Cl)cc3N3CCCC(n4ncc(C(=O)O)c4C(F)F)C3)cc2)CC1 (single isomer, unassigned; enantiomer 2) [Example 51, 1-(1-{4-Chloro-4′-[4-(3-methylbutanoyl)piperazin-1-yl][biphenyl]-2-yl}piperidin-3-yl)-5-(difluoromethyl)-1H-pyrazole-4-carboxylic acid (Enantiomer 2)]",28.4,3.0
"O=C(O)c1cnn(C2CCCN(c3cc(Cl)ccc3-c3ccc(N4CCN(C[C@H]5C[C@H]5F)CC4)cc3)C2)c1C(F)F (single isomer, unassigned; stereoisomer 2) [Example 37]",2.1,1.0
"CCC(=O)N1CCC(c2ccc(-c3ccc(Cl)cc3N3CCCC(n4ncc(C(=O)O)c4C(F)F)C3)cc2)CC1 (single isomer, unassigned; enantiomer 2) [Example 56, 1-{1-[4-Chloro-4′-(1-propanoylpiperidin-4-yl)[biphenyl]-2-yl]piperidin-3-yl}-5-(difluoromethyl)-1H-pyrazole-4-carboxylic acid hydrochloride (Enantiomer 2)]",1.5,1.0
"O=C(O)c1cnn(C2CCCN(c3cc(Cl)ccc3-c3ccc(N4CCN(CCC(F)F)CC4)cc3)C2)c1C(F)F (single isomer, unassigned; enantiomer 2) [Example 22, 1-(1-{4-Chloro-4′-[4-(3,3-difluoropropyl)piperazin-1-yl][biphenyl]-2-yl}piperidin-3-yl)-5-(difluoromethyl)-1H-pyrazole-4-carboxylic acid hydrochloride (Enantiomer 2)]",1,<0.3
"O=C(O)c1cnn(C2CCCN(c3cc(Cl)ccc3-c3ccc(N4CCN(C5CC5)CC4)cc3)C2)c1C(F)F (single isomer, unassigned; enantiomer 2) [Example 9, 1-{1-[4-Chloro-4′-(4-cyclopropylpiperazin-1-yl)[biphenyl]-2-yl]piperidin-3-yl}-5-(difluoromethyl)-1H-pyrazole-4-carboxylic acid hydrochloride (Enantiomer 2)]",36.5,3.0
"CN1CCN(c2ncc(-c3ccc(Cl)cc3N3CCCC(n4ncc(C(=O)O)c4C(F)F)C3)cn2)CC1 (single isomer, unassigned; enantiomer 2) [Example 71, 1-(1-{5-Chloro-2-[2-(4-methylpiperazin-1-yl)pyrimidin-5-yl]phenyl}piperidin-3-yl)-5-(difluoromethyl)-1H-pyrazole-4-carboxylic acid hydrochloride (Enantiomer 2)]",92,30.0
"O=C(O)c1cnn(C2CCCN(c3cc(Cl)ccc3-c3ccc(N4CCN(CC5CC56CC6)CC4)cc3)C2)c1C(F)F (mixture of isomers) [Example 41, 1-[1-[5-Chloro-2-[4-[4-(spiro[2.2]pentan-2-ylmethyl)piperazin-1-yl]phenyl]phenyl]-3-piperidyl]-5-(difluoromethyl)pyrazole-4-carboxylic acid hydrochloride (Diastereomeric mixture 2)]",8.3,1.0

# More lines, in order of falling EC50, values ahead:
EC50 [nM],MEC [nM],Compound
34,10.0,"CCN1CCN(c2ccc(-c3ccc(Cl)cc3N3CC(n4ncc(C(=O)O)c4C(F)F)CC(F)(F)C3)cc2)CC1 (single isomer, unassigned; enantiomer 2) [Example 53, 1-{1-[4-chloro-4′-(4-ethylpiperazin-1-yl)[biphenyl]-2-yl]-5,5-difluoropiperidin-3-yl}-5-(difluoromethyl)-1H-pyrazole-4-carboxylic acid hydrochloride (Enantiomer 2)]"
33.5,3.0,"CC(C)N1CCN(c2ccc(-c3ccc(Cl)cc3N3CCCC(n4ncc(C(=O)O)c4C(F)F)C3)cc2)CC1 (single isomer, unassigned; enantiomer 2) [Example 6, 1-{1-[4-Chloro-4′-(4-isopropylpiperazin-1-yl)[biphenyl]-2-yl]piperidin-3-yl}-5-(difluoromethyl)-1H-pyrazole-4-carboxylic acid (Enantiomer 2)]"
13.9,3.0,"CC(C)(F)C(=O)N1CCN(c2ccc(-c3ccc(Cl)cc3N3CCCC(n4ncc(C(=O)O)c4C(F)F)C3)cc2)CC1 (single isomer, unassigned; enantiomer 2) [Example 49, 1-(1-{4-Chloro-4′-[4-(2-fluoro-2-methylpropanoyl)piperazin-1-yl][biphenyl]-2-yl}piperidin-3-yl)-5-(difluoromethyl)-1H-pyrazole-4-carboxylic acid (Enantiomer 2)]"
13.2,1.0,"O=C(O)c1cnn(C2CCCN(c3cc(Cl)ccc3-c3ccc(N4CCN(CC5CCC5)CC4)cc3)C2)c1C(F)F (single isomer, unassigned; enantiomer 2) [Example 14, 1-[1-{4-Chloro-4′-[4-(cyclobutylmethyl)piperazin-1-yl][biphenyl]-2-yl}piperidin-3-yl]-5-(difluoromethyl)-1H-pyrazole-4-carboxylic acid hydrochloride (Enantiomer 2)]"
7.1,1.0,"O=C(O)c1cnn(C2CCCN(c3cc(Cl)ccc3-c3ccc(N4CCN(CC5CC5C(F)(F)F)CC4)cc3)C2)c1C(F)F (mixture of isomers) [Example 38, 1-{1-[4-Chloro-4′-(4-{[cis-2-(trifluoromethyl)cyclopropyl]methyl}piperazin-1-yl) [biphenyl]-2-yl]piperidin-3-yl}-5-(difluoromethyl)-1H-pyrazole-4-carboxylic acid hydrochloride (Diastereoisomeric Mixture 1)]"
2.7,0.3,"O=C(O)c1cnn(C2CCCN(c3cc(Cl)ccc3-c3ccc(N4CCN(CC5CC5F)CC4)cc3)C2)c1C(F)F (mixture of isomers) [Example 32, 1-[1-[5-chloro-2-[4-[4-[(trans-2-fluorocyclopropyl)methyl]piperazin-1-yl]phenyl]phenyl]-3-piperidyl]-5-(difluoromethyl)pyrazole-4-carboxylic acid hydrochloride (Diastereoisomeric mixture 2)]"
1.9,0.3,"O=C(O)c1cnn(C2CCCN(c3cc(Cl)ccc3-c3ccc(N4CCN(C(=O)C5CC5)CC4)cc3)C2)c1C(F)F (single isomer, unassigned; enantiomer 2) [Example 50, 1-(1-{4-Chloro-4′-[4-(3-cyclopropylcarbonyl)piperazin-1-yl][biphenyl]-2-yl}piperidin-3-yl)-5-(difluoromethyl)-1H-pyrazole-4-carboxylic acid (Enantiomer 2)]"
